Measurements taken from US10457682B2, “Small molecules that bind MR1” (OREGON HEALTH & SCIENCE UNIVERSITY, priority 2016, dated 2019).
Entries after “also recorded” stand apart in the source; their conditions may differ. Like-named read-outs stand apart in the source and are kept apart here.

What was measured:
hpMR1 = hpMR1 (UniProt C1ITJ8+Q95460); conditions: tandem mass spectrometry; hpMR1-bac, +EC, +MS
Protocol: MR1 expressed in cells infected with two distinct microbes recognized by MR1Ts, E. coli and M. smegmatis, were analyzed by flow cytometry, ELISPOT assay, and mass spectrometry.
The presence and relative abundance of known MR1T ligands was assessed.
To further explore the MR1 ligandome, all ligands eluted from hpMR1-bac, +EC, and +MS were evaluated using LCMS. Fold increase was calculated for each ion/ligand in either hpMR1+MS or +EC compared to all other samples and plotted on volcano plots (FIG. 2A).
Global Natural Products Social Molecular Networking (GNPS) was used to assist in the identification of these novel ligands.

MR1T cell clone D426 G11 [1] = conditions: literature (Harriff 2016; Eckle 2014); cited from earlier work
MR1T clones = experiment: Ability of synthetic ligands to stimulate MR1T clones; assay type: cell-based, human
Protocol: (§1) To determine whether riboflavin, FO, PLI, and PLIII were antigens, they were tested for their ability to stimulate MR1T clones. […] (FIGS. 4A, 4B). […] To determine whether riboflavin or FO are also antagonistic, antigen presenting cells (APC) were pre-loaded with riboflavin or FO and then tested for their ability to present antigens from M. smegmatis supernatant (Msm-sup) to MR1Ts. […] PLI and PLIII were each tested for their ability to stimulate two MR1T clones with distinct TCRs.
(§2) FIGS. 4A, 4B, 4C, 4D: MR1T cell responses to synthetic ligands. A-B) MR1T cell clone D426 G11 responses to BEAS-2B cells incubated with FO (A, 10 μM, 30 μM, or 100 μM), or Riboflavin (B, 7.8 μM-500 μM) prior to addition of M. smegmatis supernatant (Msm-s) or PHA. C) MR1 cell clone D481 C7 responses to DC incubated with synthetic PLI, PLIII, RL-6,7,-diMe (DMRL), or RL-6-Me-7-OH (HMRL), at 1.56μM-200μM, or M. smegmatis (Msm), M. smegmatis supernatant (Msm-s), or PHA. D) Panel of MR1T cell clones or an HLA-B45-restricted T cell clone (D466 A10) incubated with 100 μM PLI, PLIII, DMRL, or HMRL.

MR1 = MR1 (Homo sapiens, UniProt Q95460); experiment: Binding of small molecule ligands to MR1
Text: 6,7-dimethyl-5-deazalumazine (DZ) is a synthetic compound designed based on the structure and activity of FO and other known mycobacterial ligands for MR1. […] Photolumazines I and III are small molecule secondary metabolites produced by bacteria.
Binding can be detected by any procedure known to one skilled in the art, such as by physical or functional properties including cellular properties. Binding can also be detected by visualization of a label (such as a fluorescent label) conjugated to one of the molecules.
Disclosed herein is work reflecting the diversity of ligands bound by MR1 in the context of infection with different microbes. MR1 ligand diversity is detected by MR1T cells, as MR1 tetramers loaded with multiple bacterial ligands were broadly recognized by MR1T clones with distinct TCR arrangements and by PBMC from a panel of donors. […] While previous work has only identified a few riboflavin metabolites as activating MR1Ts, our results establishes that MR1 samples the broader microbial metabolome similar to how conventional MHC molecules sample the microbial peptidome and CD1 molecules sample microbial lipids and glycolipids.

MR1T cell clone D426 G11 [2] = experiment: Blocking of MR1T clone response to M. smegmatis supernatant after pre-loading antigen presenting cells; assay type: cell-based, human; conditions: for blocking of MR1T clone response to Msm-sup (MAIT cell activation): APC (BEAS-2B) pre-loaded with FO 10-100 μM or riboflavin 7.8-500 μM, then M. smegmatis supernatant
Protocol: as §1, §2

MR1T clone D426_G11 = experiment: MR1T cell clone D426_G11 responses to synthetic ligands; assay type: cell-based, human; conditions: FIG. 4C bottom
Protocol: as §1, §2

[3] = system: D481_F12 and D481_A9 MR1T cell clones; experiment: D481_F12 and D481_A9 MR1T cell clone responses to synthetic ligands; assay type: cell-based, human; conditions: 100 μM ligand (FIG. 4D)
Protocol: (§3) Given the striking differences in response between D481_C7 and D426_G11, we postulated that discrete TCR usage could be associated with ligand discrimination. To test this, an expanded panel of TCR diverse MR1T clones was tested for their ability to recognize each antigen. Every clone responded robustly to APC infected with M. smegmatis (FIG. 4D). […] In contrast, the D481_C7 responded to RL-6-Me-7-OH as well as RL-6,7-diMe, PLI, and PLIII. Because TRAV1-2 negative cells were stained with the hpMR1+EC tetramer, we also tested the ability of a recently described TRAV12-2 MR1T cell clone to respond to these ligands.
as §2

MR1T clone D481_C7 = experiment: MR1T cell clone D481 C7 responses to DC incubated with synthetic ligands; assay type: cell-based, human; conditions: for response of clone D481_C7: 100 μM ligand (FIG. 4D); for IFN-γ response of clone D481_C7: DC incubated with ligand at 1.56 μM-200 μM (FIG. 4C top)
Protocol: as §1, §3, §2

[4] = system: D462_E4 TRAV12-2 MR1T cell clone; experiment: TRAV12-2 MR1T cell clone D462_E4 responses to synthetic ligands; assay type: cell-based, human; conditions: 100 μM ligand (FIG. 4D)
Protocol: as §3, §2

hpMR1, sequence (Q95460 23-201 limits assumed): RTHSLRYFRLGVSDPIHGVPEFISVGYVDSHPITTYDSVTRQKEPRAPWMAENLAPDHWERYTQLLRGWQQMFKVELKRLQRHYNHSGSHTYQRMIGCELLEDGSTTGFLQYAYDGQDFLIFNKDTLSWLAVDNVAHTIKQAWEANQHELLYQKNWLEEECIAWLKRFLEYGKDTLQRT
hpMR1, sequence (C1ITJ8 198-289 limits assumed): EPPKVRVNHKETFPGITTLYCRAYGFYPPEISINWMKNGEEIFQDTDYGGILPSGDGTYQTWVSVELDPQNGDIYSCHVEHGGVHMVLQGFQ
MR1, sequence (Q95460 23-341): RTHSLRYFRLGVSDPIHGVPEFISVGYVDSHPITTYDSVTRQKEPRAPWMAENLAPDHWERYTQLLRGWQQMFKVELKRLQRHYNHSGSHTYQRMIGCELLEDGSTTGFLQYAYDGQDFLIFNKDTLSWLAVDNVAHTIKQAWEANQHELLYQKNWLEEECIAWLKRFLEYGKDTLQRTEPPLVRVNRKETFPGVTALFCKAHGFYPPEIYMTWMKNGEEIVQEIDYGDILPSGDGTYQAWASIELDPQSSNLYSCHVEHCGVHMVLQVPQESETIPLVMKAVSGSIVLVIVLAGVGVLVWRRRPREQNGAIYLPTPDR
MR1, sequence (P61769 21-119 partner): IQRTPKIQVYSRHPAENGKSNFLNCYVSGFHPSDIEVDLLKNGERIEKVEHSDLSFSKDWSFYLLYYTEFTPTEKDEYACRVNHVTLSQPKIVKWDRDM

SMILES	presence among ligands eluted from hpMR1 preparations (hpMR1)	ability to stimulate MR1T clones (MR1T cell activation) (MR1T clones)	binding to MR1 / MR1 ligand (MR1)	recognition by D481_F12 and D481_A9 MR1T cell clones [3]	response of clone D481_C7 (MR1T clone D481_C7)	response of D462_E4 TRAV12-2 MR1T cell clone [4]	other results
O=CC=Nc1c(NC[C@H](O)[C@H](O)[C@H](O)CO)[nH]c(=O)[nH]c1=O [5-OE-RU, 5-(2-oxoethylideneamino)-6-D-ribitylaminouracil]	not found in these hpMR1 preparations						
Nc1nc2ncc(C=O)nc2c(=O)[nH]1 [6-FP]							antagonism of MR1T activation (MR1T cell clone D426 G11 [1]): antagonizes MR1T activation
Cc1cc2c(=O)[nH]c(=O)[nH]c2nc1C [DZ, 6,7-dimethyl-5-deazalumazine]		activates MR1 restricted T cells	binds MR1				
O=c1nc2n(C[C@H](O)[C@H](O)[C@H](O)CO)c3cc(O)ccc3cc-2c(=O)[nH]1 [FO]		Neither riboflavin nor FO was capable of MR1T cell activation	binds MR1; also recorded: confirmed these molecules as novel MR1 ligands				blocking of MR1T clone response to Msm-sup (MAIT cell activation) (MR1T cell clone D426 G11 [2]): blocks the activation of MAIT cells; also recorded: blocked the MR1T clone response to Msm-sup; antagonist potency relative to riboflavin (amount required to reach 50% inhibition) (MR1T cell clone D426 G11 [2]; pre-incubation of APC, response to Msm-sup): less FO was required to reach 50% inhibition
O=c1nc2n(C[C@H](O)[C@H](O)[C@H](O)CO)c(O)c(-c3c[nH]c4ccccc34)nc-2c(=O)[nH]1 [PLIII]		antigenic	confirmed these molecules as novel MR1 ligands	modest or no recognition	responded	comparable responses to RL-6-Me-7-OH and PLI that were greater than PLIII	IFN-γ response of clone D426_G11 (MR1T clone D426_G11): only modest responses; IFN-γ response of clone D481_C7 (MR1T clone D481_C7): potent activating ligands similar to RL-6,7-diMe; ability to stimulate MR1T clones (MR1T cell activation) (MR1T clones; listed as Photolumazine III): activated MR1 restricted T cells; binding to MR1 / MR1 ligand (MR1; listed as Photolumazine III): bind MR1
O=C(O)CCc1nc2c(=O)[nH]c(=O)nc-2n(C[C@H](O)[C@H](O)[C@H](O)CO)c1O [PLI]	unique to hpMR1+MS	antigenic	confirmed these molecules as novel MR1 ligands	modest or no recognition	responded	comparable responses to RL-6-Me-7-OH and PLI that were greater than PLIII	IFN-γ response of clone D426_G11 (MR1T clone D426_G11): only modest responses; IFN-γ response of clone D481_C7 (MR1T clone D481_C7): potent activating ligands similar to RL-6,7-diMe; ability to stimulate MR1T clones (MR1T cell activation) (MR1T clones; listed as Photolumazine I): activated MR1 restricted T cells; binding to MR1 / MR1 ligand (MR1; listed as Photolumazine I): bind MR1
Cc1nc2c(=O)[nH]c(=O)nc-2n(C[C@H](O)[C@H](O)[C@H](O)CO)c1C [RL-6,7-diMe, reference compound]	not found in these hpMR1 preparations			responded	responded	did not respond	
Cc1nc2c(=O)[nH]c(=O)nc-2n(C[C@H](O)[C@H](O)[C@H](O)CO)c1O [RL-6-Me-7-OH, reference compound]				modest or no recognition	responded	comparable responses to RL-6-Me-7-OH and PLI that were greater than PLIII	
Cc1cc2nc3c(=O)[nH]c(=O)nc-3n(C[C@H](O)[C@H](O)[C@H](O)CO)c2cc1C [riboflavin, reference compound]		Neither riboflavin nor FO was capable of MR1T cell activation	confirmed these molecules as novel MR1 ligands				blocking of MR1T clone response to Msm-sup (MAIT cell activation) (MR1T cell clone D426 G11 [2]): blocked the MR1T clone response to Msm-sup
